Results reported in US12371428B2 (Exelixis, Inc., priority 2019, dated 2025).

Legend:
[1] = target: KDR (phospho-KDR, VEGF165-stimulated HUVEC cells) (Homo sapiens (Human), UniProt P35968); test: KDR autophosphorylation ELISA in HUVEC cells (Example G); format: cell-based; conditions: cellular activity; KDR autophosphorylation ELISA in HUVEC cells
How it was run: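 HUVEC cells, serum-starved 24 h, were treated 1 h with an 8-point compound dilution (0.3% DMSO) and then stimulated with 100 ng/mL VEGF165 for 5 min. Phospho-KDR in lysates was quantified by sandwich ELISA against a phospho-KDR standard. IC50 from a 4-parameter logistic fit, normalised between stimulated DMSO and unstimulated controls.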

[2] = target: Met (phospho-Met, HGF-stimulated PC-3 prostate cancer cells) (Homo sapiens (Human), UniProt P08581); test: Met autophosphorylation ELISA in PC-3 cells (Example F); format: cell-based; conditions: cellular activity; Met autophosphorylation ELISA in PC-3 cells; read-out: c-Met IC50
Met (phospho-Met, HGF-stimulated PC-3 prostate cancer cells), sequence (P08581 25-1390): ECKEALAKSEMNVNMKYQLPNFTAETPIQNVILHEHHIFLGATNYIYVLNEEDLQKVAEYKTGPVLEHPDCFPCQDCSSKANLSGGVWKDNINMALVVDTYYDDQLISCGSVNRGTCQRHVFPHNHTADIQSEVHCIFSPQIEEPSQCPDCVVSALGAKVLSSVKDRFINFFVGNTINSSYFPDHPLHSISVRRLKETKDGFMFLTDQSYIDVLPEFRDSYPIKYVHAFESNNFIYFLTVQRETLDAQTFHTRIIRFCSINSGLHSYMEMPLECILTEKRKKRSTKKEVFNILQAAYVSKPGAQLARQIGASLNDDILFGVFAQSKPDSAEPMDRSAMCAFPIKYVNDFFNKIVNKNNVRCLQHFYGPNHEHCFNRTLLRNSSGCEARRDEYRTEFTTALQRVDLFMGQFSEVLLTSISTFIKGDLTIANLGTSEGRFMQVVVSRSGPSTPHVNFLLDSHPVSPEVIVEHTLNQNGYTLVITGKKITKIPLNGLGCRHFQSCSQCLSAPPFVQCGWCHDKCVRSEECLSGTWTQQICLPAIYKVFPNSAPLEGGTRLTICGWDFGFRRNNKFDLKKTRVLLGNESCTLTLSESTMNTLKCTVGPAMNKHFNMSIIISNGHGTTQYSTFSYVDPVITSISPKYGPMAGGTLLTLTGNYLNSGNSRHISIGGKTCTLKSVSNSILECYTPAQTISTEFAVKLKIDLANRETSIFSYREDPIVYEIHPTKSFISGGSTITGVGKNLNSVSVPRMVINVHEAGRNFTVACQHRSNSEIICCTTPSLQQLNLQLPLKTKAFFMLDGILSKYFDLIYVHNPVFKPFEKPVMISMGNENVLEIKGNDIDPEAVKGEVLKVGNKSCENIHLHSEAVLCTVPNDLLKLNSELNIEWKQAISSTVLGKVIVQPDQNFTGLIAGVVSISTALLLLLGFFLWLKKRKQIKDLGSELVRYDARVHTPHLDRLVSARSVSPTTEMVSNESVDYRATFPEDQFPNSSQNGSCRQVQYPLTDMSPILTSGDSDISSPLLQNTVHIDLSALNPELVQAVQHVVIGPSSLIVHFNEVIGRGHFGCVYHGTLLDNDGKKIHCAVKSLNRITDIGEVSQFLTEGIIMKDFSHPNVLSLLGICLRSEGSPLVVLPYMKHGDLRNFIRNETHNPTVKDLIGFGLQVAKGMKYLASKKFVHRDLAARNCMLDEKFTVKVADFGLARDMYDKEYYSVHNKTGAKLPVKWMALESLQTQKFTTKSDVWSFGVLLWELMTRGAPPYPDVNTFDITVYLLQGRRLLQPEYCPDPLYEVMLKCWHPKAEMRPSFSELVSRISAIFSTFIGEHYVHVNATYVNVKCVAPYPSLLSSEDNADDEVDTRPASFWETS
How it was run: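 Sandwich ELISA for phospho-Met (panTyr) in PC-3 lysates. Cells starved 3 h serum-free, compound 1 h (8-pt curve, 0.3% DMSO), HGF 100 ng/mL 10 min. 100% = HGF + DMSO; 0% = HGF + reference inhibitor. IC50 by 4-parameter fit.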

KDR (phospho-KDR, VEGF165-stimulated HUVEC cells), sequence (P35968 20-1356): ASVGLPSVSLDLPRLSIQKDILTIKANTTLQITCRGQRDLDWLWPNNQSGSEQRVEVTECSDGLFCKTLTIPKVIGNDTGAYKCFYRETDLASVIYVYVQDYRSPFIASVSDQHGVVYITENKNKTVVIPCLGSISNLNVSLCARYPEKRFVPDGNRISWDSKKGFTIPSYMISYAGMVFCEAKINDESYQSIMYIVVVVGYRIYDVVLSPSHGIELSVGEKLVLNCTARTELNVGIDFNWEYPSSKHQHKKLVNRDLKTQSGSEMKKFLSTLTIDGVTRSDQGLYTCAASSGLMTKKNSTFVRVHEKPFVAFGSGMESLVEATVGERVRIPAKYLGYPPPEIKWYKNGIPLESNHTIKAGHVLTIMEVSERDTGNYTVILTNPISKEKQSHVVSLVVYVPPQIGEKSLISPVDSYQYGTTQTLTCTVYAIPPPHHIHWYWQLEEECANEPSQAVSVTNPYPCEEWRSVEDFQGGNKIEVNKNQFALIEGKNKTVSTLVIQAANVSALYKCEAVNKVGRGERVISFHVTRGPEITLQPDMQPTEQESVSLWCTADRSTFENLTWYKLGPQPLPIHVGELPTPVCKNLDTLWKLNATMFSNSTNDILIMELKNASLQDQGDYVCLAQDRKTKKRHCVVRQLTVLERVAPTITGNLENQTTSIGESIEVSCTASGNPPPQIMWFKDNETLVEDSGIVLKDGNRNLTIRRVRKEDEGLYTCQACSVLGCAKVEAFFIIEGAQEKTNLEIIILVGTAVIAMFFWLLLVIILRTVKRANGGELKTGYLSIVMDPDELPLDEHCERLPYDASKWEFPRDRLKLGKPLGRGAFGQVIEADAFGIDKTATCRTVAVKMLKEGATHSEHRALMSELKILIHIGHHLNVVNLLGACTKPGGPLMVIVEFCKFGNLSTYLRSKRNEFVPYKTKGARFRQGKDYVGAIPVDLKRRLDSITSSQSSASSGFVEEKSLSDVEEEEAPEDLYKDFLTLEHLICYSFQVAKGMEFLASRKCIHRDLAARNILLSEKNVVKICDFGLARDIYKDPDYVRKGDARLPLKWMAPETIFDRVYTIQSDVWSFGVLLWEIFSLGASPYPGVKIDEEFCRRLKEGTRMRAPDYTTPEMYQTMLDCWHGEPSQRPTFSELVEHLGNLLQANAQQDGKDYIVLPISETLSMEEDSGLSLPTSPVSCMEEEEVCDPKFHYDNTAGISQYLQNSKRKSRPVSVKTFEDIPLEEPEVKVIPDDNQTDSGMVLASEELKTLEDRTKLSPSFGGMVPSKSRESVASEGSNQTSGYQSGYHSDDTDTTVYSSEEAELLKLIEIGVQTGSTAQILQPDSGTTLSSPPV

| SMILES | IC50 [1] | IC50 [2] |
| --- | --- | --- |
| CCn1cc(-c2ccc(F)cc2)c(=O)c(C(=O)Nc2ccc(Oc3ccnc4cc(OC)c(OC)nc34)c(F)c2)c1C [Compound 82, N-[4-[(6,7-Dimethoxy-1,5-naphthyridin-4-yl)oxy]-3-fluorophenyl]-1-ethyl-5-(4-fluorophenyl)-2-methyl-4-oxopyridine-3-carboxamide] | 100 to 300 nM | < 100 nM |
| COc1cnc2c(Oc3ccc(NC(=O)c4ccc(C)n(-c5ccc(F)cc5)c4=O)cc3F)ccnc2c1 [Compound 83, N-[3-Fluoro-4-[(7-methoxy-1,5-naphthyridin-4-yl)oxy]phenyl]-1-(4-fluorophenyl)-6-methyl-2-oxopyridine-3-carboxamide] | < 100 nM | < 100 nM |
| COc1ccc2nccc(Oc3ccc(NC(=O)c4ccc(C)n(-c5ccc(F)cc5C)c4=O)cc3F)c2n1 [Compound 85, N-[3-Fluoro-4-[(6-methoxy-1,5-naphthyridin-4-yl)oxy]phenyl]-1-(4-fluoro-2-methylphenyl)-6-methyl-2-oxopyridine-3-carboxamide] | < 100 nM | < 100 nM |
| COc1cc2nccc(Oc3ccc(NC(=O)c4cc(C(C)=O)c(C)n(-c5ccc(F)cc5)c4=O)cc3F)c2nc1OC [Compound 86, 5-Acetyl-N-[4-[(6,7-dimethoxy-1,5-naphthyridin-4-yl)oxy]-3-fluorophenyl]-1-(4-fluorophenyl)-6-methyl-2-oxopyridine-3-carboxamide] | 100 to 300 nM | < 100 nM |
| COc1ccc2nccc(Oc3ccc(NC(=O)c4n[nH]c(C)c(-c5ccc(F)cc5)c4=O)cc3F)c2n1 [Compound 89, N-[3-Fluoro-4-[(6-methoxy-1,5-naphthyridin-4-yl)oxy]phenyl]-5-(4-fluorophenyl)-6-methyl-4-oxo-1H-pyridazine-3-carboxamide] | < 100 nM | < 100 nM |
| COc1cc2nccc(Oc3ccc(NC(=O)c4n[nH]c(C)c(-c5ccc(F)cc5C)c4=O)cc3F)c2nc1OC [Compound 90, N-[4-[(6,7-Dimethoxy-1,5-naphthyridin-4-yl)oxy]-3-fluorophenyl]-5-(4-fluoro-2-methylphenyl)-6-methyl-4-oxo-1H-pyridazine-3-carboxamide] | < 100 nM | < 100 nM |
| COc1cc2nccc(Oc3ccc(NC(=O)c4nc(C)c(C)n(-c5ccc(F)cc5)c4=O)cc3F)c2nc1OC [Compound 95, N-[4-[(6,7-Dimethoxy-1,5-naphthyridin-4-yl)oxy]-3-fluorophenyl]-4-(4-fluorophenyl)-5,6-dimethyl-3-oxopyrazine-2-carboxamide] | > 300 nM | < 100 nM |
| COc1cc2nccc(Oc3ccc(NC(=O)c4ncnc(-c5ccc(F)cc5)c4O)cc3F)c2nc1OC [Compound 96, N-[4-[(6,7-Dimethoxy-1,5-naphthyridin-4-yl)oxy]-3-fluorophenyl]-6-(4-fluorophenyl)-5-hydroxypyrimidine-4-carboxamide] | < 100 nM | < 100 nM |
| COc1cc2nccc(Oc3ncc(NC(=O)c4cn(-c5ccn(C)n5)cc(-c5ccc(F)cc5)c4=O)cc3F)c2cc1OC [Compound 402, N-[6-(6,7-dimethoxyquinolin-4-yl)oxy-5-fluoropyridin-3-yl]-5-(4-fluorophenyl)-1-(1-methylpyrazol-3-yl)-4-oxopyridine-3-carboxamide] | > 300 nM | < 100 nM |
| CCOc1c(-c2ccc(F)cc2)cnc(C)c1C(=O)Nc1ccc(Oc2ccnc3cc(OC)c(OC)nc23)c(F)c1 [Compound 403, N-[4-[(6,7-dimethoxy-1,5-naphthyridin-4-yl)oxy]-3-fluorophenyl]-4-ethoxy-5-(4-fluorophenyl)-2-methylpyridine-3-carboxamide] | 100 to 300 nM | < 100 nM |
| CNC(=O)c1cc2c(Oc3ccc(NC(=O)c4c5n(cc(-c6ccc(F)cc6)c4=O)CCC5)cc3F)ccnc2cc1OC [Compound 408, 4-[2-fluoro-4-[[6-(4-fluorophenyl)-7-oxo-2,3-dihydro-1H-indolizine-8-carbonyl]amino]phenoxy]-7-methoxy-N-methylquinoline-6-carboxamide] | < 100 nM | < 100 nM |
| CCn1cc(C(=O)Nc2ccc(Oc3ccnc4cc(O)cnc34)c(F)c2)c(=O)c(-c2ccc(F)cc2)c1C [Compound 410, 1-ethyl-N-[3-fluoro-4-[(7-hydroxy-1,5-naphthyridin-4-yl)oxy]phenyl]-5-(4-fluorophenyl)-6-methyl-4-oxopyridine-3-carboxamide] | > 300 nM | 100 to 300 nM |
| COc1cnc2c(Oc3ccc(NC(=O)c4cn(C)c(Cl)c(-c5ccc(F)cc5)c4=O)cc3F)ccnc2c1 [Compound 411, 6-chloro-N-[3-fluoro-4-[(7-methoxy-1,5-naphthyridin-4-yl)oxy]phenyl]-5-(4-fluorophenyl)-1-methyl-4-oxopyridine-3-carboxamide] | > 300 nM | < 100 nM |
| COc1cc2nccc(Oc3ccc(NC(=O)c4cnc(C)c(-c5ccc(F)cc5)c4O)cc3)c2nc1OC(C)C [Compound 413, 5-(4-fluorophenyl)-4-hydroxy-N-[4-[(7-methoxy-6-propan-2-yloxy-1,5-naphthyridin-4-yl)oxy]phenyl]-6-methylpyridine-3-carboxamide] | < 100 nM | < 100 nM |
| COc1cc2nccc(Oc3ccc(NC(=O)c4cnc(C)c(-c5ccc(F)cc5C)c4O)cc3)c2nc1OC(C)C [Compound 414, 5-(4-fluoro-2-methylphenyl)-4-hydroxy-N-[4-[(7-methoxy-6-propan-2-yloxy-1,5-naphthyridin-4-yl)oxy]phenyl]-6-methylpyridine-3-carboxamide] | < 100 nM | < 100 nM |

More lines, now with the values ahead:

| IC50 [1] | IC50 [2] | SMILES |
| --- | --- | --- |
| < 100 nM | < 100 nM | COc1ccc2nccc(Oc3ccc(NC(=O)c4ccc(C)n(-c5ccc(F)cc5)c4=O)cc3F)c2n1 [Compound 84, N-[3-Fluoro-4-[(6-methoxy-1,5-naphthyridin-4-yl)oxy]phenyl]-1-(4-fluorophenyl)-6-methyl-2-oxopyridine-3-carboxamide] |
| > 300 nM | < 100 nM | COc1cc2nccc(Oc3ccc(NC(=O)c4cc(C#N)c(C)n(-c5ccc(F)cc5)c4=O)cc3F)c2nc1OC [Compound 87, 5-Cyano-N-[4-[(6,7-dimethoxy-1,5-naphthyridin-4-yl)oxy]-3-fluorophenyl]-1-(4-fluorophenyl)-6-methyl-2-oxopyridine-3-carboxamide] |
| < 100 nM | < 100 nM | COc1cc2nccc(Oc3ccc(NC(=O)c4n[nH]c(C)c(-c5ccc(F)cc5)c4=O)cc3F)c2nc1OC [Compound 88, N-[4-[(6,7-Dimethoxy-1,5-naphthyridin-4-yl)oxy]-3-fluorophenyl]-5-(4-fluorophenyl)-6-methyl-4-oxo-1H-pyridazine-3-carboxamide] |
| 100 to 300 nM | < 100 nM | COc1cc2nccc(Oc3ccc(NC(=O)c4nn(C)c(C)c(-c5ccc(F)cc5)c4=O)cc3)c2nc1OC [Compound 91, N-[4-[(6,7-Dimethoxy-1,5-naphthyridin-4-yl)oxy]phenyl]-5-(4-fluorophenyl)-1,6-dimethyl-4-oxopyridazine-3-carboxamide] |
| < 100 nM | < 100 nM | COc1cc2nccc(Oc3ccc(NC(=O)c4nn(C)c(C)c(-c5ccc(F)cc5)c4=O)cc3F)c2nc1OC [Compound 92, N-[4-[(6,7-Dimethoxy-1,5-naphthyridin-4-yl)oxy]-3-fluorophenyl]-5-(4-fluorophenyl)-1,6-dimethyl-4-oxopyridazine-3-carboxamide] |
| < 100 nM | < 100 nM | COc1cc2nccc(Oc3ccc(NC(=O)c4ncc(C)n(-c5ccc(F)cc5)c4=O)cc3F)c2nc1OC [Compound 93, N-[4-[(6,7-Dimethoxy-1,5-naphthyridin-4-yl)oxy]-3-fluorophenyl]-4-(4-fluorophenyl)-5-methyl-3-oxopyrazine-2-carboxamide] |
| > 300 nM | < 100 nM | COc1cnc2c(Oc3ccc(NC(=O)c4ncc(C)n(-c5ccc(F)cc5)c4=O)cc3F)ccnc2c1 [Compound 94, N-[3-Fluoro-4-[(7-methoxy-1,5-naphthyridin-4-yl)oxy]phenyl]-4-(4-fluorophenyl)-5-methyl-3-oxopyrazine-2-carboxamide] |
| > 300 nM | < 100 nM | COc1cc2nccc(Oc3ncc(NC(=O)c4cn(-c5cnn(C)c5)cc(-c5ccc(F)cc5)c4=O)cc3F)c2cc1OC [Compound 401, N-[6-(6,7-dimethoxyquinolin-4-yl)oxy-5-fluoropyridin-3-yl]-5-(4-fluorophenyl)-1-(1-methylpyrazol-4-yl)-4-oxopyridine-3-carboxamide] |
| > 300 nM | < 100 nM | COc1cc2nccc(Oc3ccc(NC(=O)c4c5n(cc(-c6ccc(F)cc6)c4=O)CCC5)cc3)c2nc1OC [Compound 407, N-[4-[(6,7-dimethoxy-1,5-naphthyridin-4-yl)oxy]phenyl]-6-(4-fluorophenyl)-7-oxo-2,3-dihydro-1H-indolizine-8-carboxamide] |
| < 100 nM | < 100 nM | COc1cc2nccc(Oc3ccc(NC(=O)c4c5n(cc(-c6ccc(F)cc6)c4=O)CCC5)cc3F)c2cc1OC [Compound 409, N-[4-(6,7-dimethoxyquinolin-4-yl)oxy-3-fluorophenyl]-6-(4-fluorophenyl)-7-oxo-2,3-dihydro-1H-indolizine-8-carboxamide] |
| < 100 nM | < 100 nM | COc1cc2nccc(Oc3ccc(NC(=O)c4cn(C)c(Cl)c(-c5ccc(F)cc5)c4=O)cc3F)c2nc1OC [Compound 412, 6-chloro-N-[4-[(6,7-dimethoxy-1,5-naphthyridin-4-yl)oxy]-3-fluorophenyl]-5-(4-fluorophenyl)-1-methyl-4-oxopyridine-3-carboxamide] |
